Measured values: ChEMBL document CHEMBL3885861, “Open TG-GATES”

Organism: Rattus norvegicus
Test: Open TG-GATES - Regimen: Daily Repeat
Format: toxicity, organism-based, Sprague-Dawley
Set-up: regimen Daily Repeat, gender Male, age 6 weeks
Details: in vivo, po, 200 mg/kg, route gavage, dose level High; for APTT / Bas / Eos / Fbg / Hb / Ht / Lym / MCH / MCHC / MCV / Mono / Neu / PT / Plat / RBC / Ret / WBC: tissue Blood; for KIDNEY_L / KIDNEY_R / KIDNEY_TOTAL: tissue Kidney; for LIVER: tissue Liver; for A/G / ALP / ALT / AST / BUN / CRE / Ca / Cl / DBIL / GLC / IP / K / LDH / Na / PL / RALB / TBIL / TC / TG / TP / gamma-GTP: tissue Plasma

## CC(CN1c2ccccc2Sc2ccccc21)N(C)C (configuration not stated) [PROMETHAZINE]
72 h, time 3 day
  TERMINAL_BW: 194.8 g
  APTT: 23.9 s
  Bas: 0%
  Eos: 0.8%
  Fbg: 333.2 mg/dL
  Hb: 15 g/dL
  Ht: 44.4%
  Lym: 74.6%
  MCH: 20.7 pg
  MCHC: 33.7%
  MCV: 61.6 fL
  Mono: 2.8%
  Neu: 21%
  PT: 16.6 s
  Plat: 130.8 x10_4/uL
  RBC: 722.2 x10_4/ul
  Ret: 4.2%
  WBC: 73 x10_2/uL
  KIDNEY_L: 0.9 g
  KIDNEY_R: 0.9 g
  KIDNEY_TOTAL: 1.8 g
  LIVER: 10 g
  A/G: 1.3
  ALP: 1369.6 IU/L
  ALT: 46.8 IU/L
  AST: 69.2 IU/L
  BUN: 14.8 mg/dL
  CRE: 0.2 mg/dL
  Ca: 10.2 mg/dL
  Cl: 107.2 meq/L
  DBIL: 0.08 mg/dL
  GLC: 174.6 mg/dL
  IP: 8.3 mg/dL
  K: 4.3 meq/L
  LDH: 204.6 IU/L
  Na: 142.4 meq/L
  PL: 159.4 mg/dL
  RALB: 3.2 g/dL
  TBIL: 0.024 mg/dL
  TC: 98.6 mg/dL
  TG: 75.6 mg/dL
  TP: 5.8 g/dL
  gamma-GTP: 1.4 IU/L
[…], time 7 day
  TERMINAL_BW: 231 g
  APTT: 23.3 s
  Bas: 0%
  Eos: 1%
  Fbg: 306.2 mg/dL
  Hb: 14.1 g/dL
  Ht: 42.2%
  Lym: 76.4%
  MCH: 19.7 pg
  MCHC: 33.4%
  MCV: 59.1 fL
  Mono: 3.2%
  Neu: 18.6%
  PT: 15.9 s
  Plat: 115.2 x10_4/uL
  RBC: 714.2 x10_4/ul
  Ret: 3.9%
  WBC: 129.8 x10_2/uL
  KIDNEY_L: 1 g
  KIDNEY_R: 1.1 g
  KIDNEY_TOTAL: 2.1 g
  LIVER: 14.7 g
  A/G: 1.1
  ALP: 1435.2 IU/L
  ALT: 56.4 IU/L
  AST: 75.4 IU/L
  BUN: 19.6 mg/dL
  CRE: 0.2 mg/dL
  Ca: 10.9 mg/dL
  Cl: 104.8 meq/L
  DBIL: 0.004 mg/dL
  GLC: 179.4 mg/dL
  IP: 7.8 mg/dL
  K: 4.5 meq/L
  LDH: 167.8 IU/L
  Na: 142 meq/L
  PL: 170.6 mg/dL
  RALB: 3 g/dL
  TBIL: 0.008 mg/dL
  TC: 84.8 mg/dL
  TG: 127 mg/dL
  TP: 5.7 g/dL
  gamma-GTP: 2.8 IU/L
[…], time 14 day
  TERMINAL_BW: 258.5 g
  APTT: 22.6 s
  Bas: 0%
  Eos: 1%
  Fbg: 369.4 mg/dL
  Hb: 15 g/dL
  Ht: 43.8%
  Lym: 70.4%
  MCH: 19.7 pg
  MCHC: 34.2%
  MCV: 57.4 fL
  Mono: 3.2%
  Neu: 24.6%
  PT: 16.1 s
  Plat: 120.6 x10_4/uL
  RBC: 763.2 x10_4/ul
  Ret: 4%
  WBC: 105 x10_2/uL
  KIDNEY_L: 1.1 g
  KIDNEY_R: 1.1 g
  KIDNEY_TOTAL: 2.2 g
  LIVER: 15.1 g
  A/G: 1
  ALP: 1417 IU/L
  ALT: 53.6 IU/L
  AST: 73.8 IU/L
  BUN: 20.6 mg/dL
  CRE: 0.2 mg/dL
  Ca: 11 mg/dL
  Cl: 103.2 meq/L
  DBIL: 0.014 mg/dL
  GLC: 184.6 mg/dL
  IP: 8 mg/dL
  K: 4.2 meq/L
  LDH: 249 IU/L
  Na: 143.4 meq/L
  PL: 182.4 mg/dL
  RALB: 3.1 g/dL
  TBIL: 0.018 mg/dL
  TC: 99 mg/dL
  TG: 117.2 mg/dL
  TP: 6.1 g/dL
  gamma-GTP: 3.4 IU/L
[…], time 28 day
  TERMINAL_BW: 339.7 g
  APTT: 23.6 s
  Bas: 0%
  Eos: 1%
  Fbg: 316.4 mg/dL
  Hb: 15.3 g/dL
  Ht: 43.5%
  Lym: 71.6%
  MCH: 19.3 pg
  MCHC: 35.1%
  MCV: 55.1 fL
  Mono: 3%
  Neu: 23.4%
  PT: 16.4 s
  Plat: 108 x10_4/uL
  RBC: 791.6 x10_4/ul
  Ret: 3.3%
  WBC: 135.4 x10_2/uL
  KIDNEY_L: 1.3 g
  KIDNEY_R: 1.3 g
  KIDNEY_TOTAL: 2.6 g
  LIVER: 21.1 g
  A/G: 1
  ALP: 1191.4 IU/L
  ALT: 54.6 IU/L
  AST: 66 IU/L
  BUN: 21.2 mg/dL
  CRE: 0.2 mg/dL
  Ca: 10.8 mg/dL
  Cl: 104.2 meq/L
  DBIL: 0.008 mg/dL
  GLC: 175.2 mg/dL
  IP: 6.8 mg/dL
  K: 4.1 meq/L
  LDH: 146 IU/L
  Na: 142.8 meq/L
  PL: 211.4 mg/dL
  RALB: 3.2 g/dL
  TBIL: 0.02 mg/dL
  TC: 116.8 mg/dL
  TG: 136.6 mg/dL
  TP: 6.3 g/dL
  gamma-GTP: 4.2 IU/L
